Results: US20050009776A1, “Method of treating atrial fibrillation or atrial flutter” (Aderis Pharmaceuticals, Inc., priority 2003, published 2005)

Test: Example 2: safety (adverse events, blood pressure, clinical laboratory values)
Assay type: in vivo, human
Settings: for Diastolic BP Change from Baseline Post-treatment / Diastolic BP Change from Baseline Treatment / Systolic BP Change from Baseline Post-treatment / Systolic BP Change from Baseline Treatment: mean ± SD
Description: Each patient received 1 of 6 doses of DTI-0009 (0.25, 1.0, 2.5, 4.0, 10.0, or 25.0 μg/kg) diluted in normal saline or normal saline only (control). Study drug was administered as a 30-minute i.v. infusion at a rate of 1 mL/minute. Patients were enrolled in sequential dose groups, beginning with the lowest active dose group and continuing in increasing dose order; the final group received normal saline. The decision to proceed to the next highest dose group was based on the safety response in the previous dose group.
Electrophysiologic (EP), electrocardiogram (ECG), blood pressure measurements, and blood collection for clinical laboratory measurements were performed at baseline (−10 to 0 minutes), during treatment (between 20 and 30 minutes), and at 10 minutes post-treatment.
ECG measurements included PR interval, QRS complex duration, and QT interval. Efficacy was based on changes in EP and ECG parameters from baseline to the treatment period and to post treatment. Safety was based on the incidence of adverse events, blood pressure measurements, and clinical laboratory values.
The incidence of adverse events, blood pressure measurements, and clinical laboratory results were summarized by dose group. Adverse events were coded using the medical dictionary for regulatory activities (MedDRA version 3.0). Safety analyses included all patients who received any duration of study drug infusion.

CCNC(=O)[C@H]1O[C@@H](n2cnc3c(NC4CCCC4)ncnc32)[C@H](O)[C@@H]1O [DTI-0009, N^6-cyclopentyl-5′-(N-ethyl)carboxamidoadenosine]
6 (60%): Incidence of Adverse Events: Any Adverse Event (1.0 μg/kg (n = 10))
1.0 ± 6.2 mmHg: Systolic BP Change from Baseline Treatment (2.5 μg/kg)
5.8 ± 9.5 mmHg: Systolic BP Change from Baseline Post-treatment (0.25 μg/kg)
3.3 ± 9.3 mmHg: Diastolic BP Change from Baseline Treatment (1.0 μg/kg)
8.8 ± 8.2 mmHg: Systolic BP Change from Baseline Treatment (0.25 μg/kg)
0.6 ± 9.0 mmHg: Systolic BP Change from Baseline Post-treatment (2.5 μg/kg)
2.5 ± 8.1 mmHg: Diastolic BP Change from Baseline Treatment (0.25 μg/kg)
5.2 ± 9.7 mmHg: Diastolic BP Change from Baseline Post-treatment (0.25 μg/kg)
1 (10%): Incidence of Adverse Events: Atrial fibrillation (0.25 μg/kg (n = 10)) | Incidence of Adverse Events: Atrial flutter (0.25 μg/kg (n = 10)) | Adverse Events Related to Study Drug: Cardiac Disorders (all) (1.0 μg/kg (n = 10)) | Incidence of Adverse Events Related to Study Drug (1.0 μg/kg (n = 10)) | Incidence of Adverse Events: Atrial flutter (1.0 μg/kg (n = 10)) | Incidence of Adverse Events: Cardiac Disorders (1.0 μg/kg (n = 10)) | Incidence of Adverse Events: General Disorders (1.0 μg/kg (n = 10)) | Incidence of Adverse Events: Groin pain/swelling (1.0 μg/kg (n = 10))
0.0 ± 8.4 mmHg: Diastolic BP Change from Baseline Treatment (2.5 μg/kg)
1 (13%): Incidence of Adverse Events: Atrial fibrillation (2.5 μg/kg (n = 8)) | Incidence of Adverse Events: Cardiac Disorders (2.5 μg/kg (n = 8)) | Incidence of Adverse Events: Chest pain/tightness (2.5 μg/kg (n = 8))
3 (38%): Incidence of Adverse Events: Any Adverse Event (2.5 μg/kg (n = 8))
3 (30%): Incidence of Adverse Events: Any Adverse Event (0.25 μg/kg (n = 10))
−1.6 ± 9.5 mmHg: Diastolic BP Change from Baseline Post-treatment (2.5 μg/kg)
0: Adverse Events Related to Study Drug: Cardiac Disorders (all) (0.25 μg/kg (n = 10)) | Adverse Events Related to Study Drug: General Disorders (all) (0.25 μg/kg (n = 10)) | Incidence of Adverse Events Related to Study Drug (0.25 μg/kg (n = 10)) | Incidence of Adverse Events: Atrial tachycardia (0.25 μg/kg (n = 10)) | Incidence of Adverse Events: Bradycardia (0.25 μg/kg (n = 10)) | Incidence of Adverse Events: Chest pain/tightness (0.25 μg/kg (n = 10)) | Incidence of Adverse Events: Conduction disorders (0.25 μg/kg (n = 10)) | Incidence of Adverse Events: General Disorders (0.25 μg/kg (n = 10)) | Incidence of Adverse Events: Groin pain/swelling (0.25 μg/kg (n = 10)) | Adverse Events Related to Study Drug: General Disorders (all) (1.0 μg/kg (n = 10)) | Incidence of Adverse Events: Atrial fibrillation (1.0 μg/kg (n = 10)) | Incidence of Adverse Events: Atrial tachycardia (1.0 μg/kg (n = 10)) | Incidence of Adverse Events: Bradycardia (1.0 μg/kg (n = 10)) | Incidence of Adverse Events: Chest pain/tightness (1.0 μg/kg (n = 10)) | Incidence of Adverse Events: Conduction disorders (1.0 μg/kg (n = 10)) | Adverse Events Related to Study Drug: Cardiac Disorders (all) (2.5 μg/kg (n = 8)) | Adverse Events Related to Study Drug: General Disorders (all) (2.5 μg/kg (n = 8)) | Incidence of Adverse Events Related to Study Drug (2.5 μg/kg (n = 8)) | Incidence of Adverse Events: Atrial flutter (2.5 μg/kg (n = 8)) | Incidence of Adverse Events: Atrial tachycardia (2.5 μg/kg (n = 8)) | Incidence of Adverse Events: Bradycardia (2.5 μg/kg (n = 8)) | Incidence of Adverse Events: Conduction disorders (2.5 μg/kg (n = 8)) | Incidence of Adverse Events: Groin pain/swelling (2.5 μg/kg (n = 8)) | Adverse Events Related to Study Drug: General Disorders (all) (4.0 μg/kg (n = 10)) | Incidence of Adverse Events: Atrial flutter (4.0 μg/kg (n = 10)) | Incidence of Adverse Events: Atrial tachycardia (4.0 μg/kg (n = 10)) | Incidence of Adverse Events: Bradycardia (4.0 μg/kg (n = 10)) | Incidence of Adverse Events: Chest pain/tightness (4.0 μg/kg (n = 10)) | Incidence of Adverse Events: Conduction disorders (4.0 μg/kg (n = 10))
2 (25%): Incidence of Adverse Events: General Disorders (2.5 μg/kg (n = 8))
1.0 ± 5.6 mmHg: Diastolic BP Change from Baseline Post-treatment (1.0 μg/kg)
2 (20%): Incidence of Adverse Events: Cardiac Disorders (0.25 μg/kg (n = 10)) | Adverse Events Related to Study Drug: Cardiac Disorders (all) (4.0 μg/kg (n = 10)) | Incidence of Adverse Events Related to Study Drug (4.0 μg/kg (n = 10)) | Incidence of Adverse Events: Any Adverse Event (4.0 μg/kg (n = 10)) | Incidence of Adverse Events: Atrial fibrillation (4.0 μg/kg (n = 10)) | Incidence of Adverse Events: Cardiac Disorders (4.0 μg/kg (n = 10))
1.4 ± 21.5 mmHg: Systolic BP Change from Baseline Post-treatment (1.0 μg/kg)
−0.1 ± 18.0 mmHg: Systolic BP Change from Baseline Treatment (1.0 μg/kg)
